Data from PubChem BioAssay (NCI).
Values after ≈ are worked out from the molar mass of the structure shown.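 The compound was tested at five concentrations on cells cultured in 96-well plates, with a 48-hour exposure period. At the GI50, growth is halved. TGI: total growth inhibition.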 Peptide text beside a SMILES is read from it.

Tests used:
Experiment in all cases: inhibition of tumour cell growth, NCI panel, 48 h
ACHN renal = test system: ACHN renal
CAKI-1 renal = test system: CAKI-1 renal
EKVX NSCLC = test system: EKVX NSCLC
HCC-2998 colon = test system: HCC-2998 colon
HCT-15 colon = test system: HCT-15 colon
HS 578T breast = test system: HS 578T breast
HT29 colon = test system: HT29 colon
IGROV1 ovarian = test system: IGROV1 ovarian
K-562 leukemia = test system: K-562 leukemia
KM12 colon = test system: KM12 colon
LOX IMVI melanoma = test system: LOX IMVI melanoma
MDA-MB-231 breast = test system: MDA-MB-231 breast
NCI-H226 lung = test system: NCI-H226 lung
NCI-H23 lung = test system: NCI-H23 lung
NCI-H460 lung = test system: NCI-H460 lung
NCI-H522 lung = test system: NCI-H522 lung
NCI/ADR-RES ovarian = test system: NCI/ADR-RES ovarian
OVCAR-3 ovarian = test system: OVCAR-3 ovarian
OVCAR-5 ovarian = test system: OVCAR-5 ovarian
PC-3 prostate = test system: PC-3 prostate
RXF 393 renal = test system: RXF 393 renal
SF-268 CNS = test system: SF-268 CNS
SK-MEL-2 melanoma = test system: SK-MEL-2 melanoma
SK-MEL-5 melanoma = test system: SK-MEL-5 melanoma
SK-OV-3 ovarian = test system: SK-OV-3 ovarian
SNB-19 CNS = test system: SNB-19 CNS
SR leukemia = test system: SR leukemia
SW-620 colon = test system: SW-620 colon
T-47D breast = test system: T-47D breast
TK-10 renal = test system: TK-10 renal
U251 CNS = test system: U251 CNS
UACC-257 melanoma = test system: UACC-257 melanoma
UACC-62 melanoma = test system: UACC-62 melanoma
UO-31 renal = test system: UO-31 renal
CCRF-CEM leukemia = test system: CCRF-CEM leukemia
MOLT-4 leukemia = test system: MOLT-4 leukemia
786-0 renal = test system: 786-0 renal
A498 renal = test system: A498 renal
A549 NSCLC = test system: A549 NSCLC
BT-549 breast = test system: BT-549 breast
COLO 205 colon = test system: COLO 205 colon
DU-145 prostate = test system: DU-145 prostate
HCT-116 colon = test system: HCT-116 colon
HOP-62 NSCLC = test system: HOP-62 NSCLC
M14 melanoma = test system: M14 melanoma
MALME-3M melanoma = test system: MALME-3M melanoma
MCF7 breast = test system: MCF7 breast
MDA-MB-435 = test system: MDA-MB-435
OVCAR-4 ovarian = test system: OVCAR-4 ovarian
OVCAR-8 ovarian = test system: OVCAR-8 ovarian
RPMI-8226 leukemia = test system: RPMI-8226 leukemia
SF-295 CNS = test system: SF-295 CNS
SF-539 CNS = test system: SF-539 CNS
SK-MEL-28 melanoma = test system: SK-MEL-28 melanoma

Question: With Oc1c(N2CCOCC2)cc(-c2cc(N3CCOCC3)c(O)c3ccccc23)c2ccccc12 as the molecule, how does the TGI (ACHN renal) read?
Answer: Its TGI is 11 µM.

Question: And the TGI (CAKI-1 renal)?
Answer: Its TGI is 13.8 µM.

Question: And the TGI (EKVX NSCLC)?
Answer: The TGI was 41.6 µM.

Question: What about the TGI (HCC-2998 colon) of the same molecule?
Answer: The TGI was 5.78 µM.

Question: And the TGI (HCT-15 colon)?
Answer: The TGI was 6.38 µM.

Question: What about the TGI (HS 578T breast) of the same molecule?
Answer: The TGI was over 100 µM.

Question: What about the TGI (HT29 colon) of the same molecule?
Answer: The TGI was 5.26 µM.

Question: What about the TGI (IGROV1 ovarian) of the same molecule?
Answer: The TGI was 7.16 µM.

Question: What about the TGI (K-562 leukemia) of the same molecule?
Answer: Its TGI is 6.64 µM.

Question: What about the TGI (KM12 colon) of the same molecule?
Answer: Its TGI is 25.4 µM.

Question: What about the TGI (LOX IMVI melanoma) of the same molecule?
Answer: Its TGI is 7.09 µM.

Question: And the TGI (MDA-MB-231 breast)?
Answer: Its TGI is over 100 µM.

Question: What about the TGI (NCI-H226 lung) of the same molecule?
Answer: The TGI was 59.8 µM.

Question: And the TGI (NCI-H23 lung)?
Answer: Its TGI is 6.13 µM.

Question: What about the TGI (NCI-H460 lung) of the same molecule?
Answer: Its TGI is 11.4 µM.

Question: And the TGI (NCI-H522 lung)?
Answer: Its TGI is 4.89 µM.

Question: And the TGI (NCI/ADR-RES ovarian)?
Answer: The TGI was 15.6 µM.

Question: What about the TGI (OVCAR-3 ovarian) of the same molecule?
Answer: The TGI was 15.6 µM.

Question: What about the TGI (OVCAR-5 ovarian) of the same molecule?
Answer: Its TGI is 7.25 µM.

Question: And the TGI (PC-3 prostate)?
Answer: The TGI was 14.6 µM.

Question: What about the TGI (RXF 393 renal) of the same molecule?
Answer: The TGI was 6.03 µM.

Question: And the TGI (SF-268 CNS)?
Answer: Its TGI is 17.8 µM.

Question: And the TGI (SK-MEL-2 melanoma)?
Answer: Its TGI is 8.29 µM.

Question: What about the TGI (SK-MEL-5 melanoma) of the same molecule?
Answer: Its TGI is 3.35 µM.

Question: What about the TGI (SK-OV-3 ovarian) of the same molecule?
Answer: The TGI was 51.9 µM.

Question: What about the TGI (SNB-19 CNS) of the same molecule?
Answer: Its TGI is 16.6 µM.

Question: And the TGI (SR leukemia)?
Answer: Its TGI is 2.29 µM.

Question: What about the TGI (SW-620 colon) of the same molecule?
Answer: Its TGI is 6.34 µM.

Question: What about the TGI (T-47D breast) of the same molecule?
Answer: Its TGI is 62.1 µM.

Question: And the TGI (TK-10 renal)?
Answer: Its TGI is 28.9 µM.

Question: What about the TGI (U251 CNS) of the same molecule?
Answer: Its TGI is 3.34 µM.

Question: What about the TGI (UACC-257 melanoma) of the same molecule?
Answer: The TGI was 5.11 µM.

Question: What about the TGI (UACC-62 melanoma) of the same molecule?
Answer: The TGI was 5.73 µM.

Question: And the TGI (UO-31 renal)?
Answer: The TGI was 4.66 µM.

Question: What does the source list for CCOC(=O)CNC(=O)C(Cc1ccccc1)NC(=O)C(N)CC(=O)O (stereo not drawn) (H-Asp-Phe-Gly-OEt; configuration not given here)?
Answer: GI50 (CCRF-CEM leukemia): 85.2 µg/mL (≈ 233 µM); GI50 (HS 578T breast): 9.31 µg/mL (≈ 25.5 µM); GI50 (KM12 colon): 0.194 µg/mL (≈ 0.532 µM); GI50 (MOLT-4 leukemia): 23.7 µg/mL (≈ 64.9 µM); GI50 (UACC-62 melanoma): 30.3 µg/mL (≈ 82.9 µM)

Question: What does the source list for CC(C)OC(=O)/C=C/C(=O)O/C=C/[N+](=O)[O-]?
Answer: TGI (786-0 renal): > 100 µM; TGI (A498 renal): 40.4 µM; TGI (A549 NSCLC): > 100 µM; TGI (ACHN renal): > 100 µM; TGI (BT-549 breast): 90.4 µM; TGI (CAKI-1 renal): > 100 µM; TGI (COLO 205 colon): 38.3 µM; TGI (DU-145 prostate): > 100 µM; TGI (EKVX NSCLC): > 100 µM; TGI (HCC-2998 colon): 50.2 µM; TGI (HCT-116 colon): 54.3 µM; TGI (HCT-15 colon): > 100 µM; TGI (HOP-62 NSCLC): > 100 µM; TGI (HT29 colon): > 100 µM; TGI (IGROV1 ovarian): 63 µM; TGI (K-562 leukemia): 66.8 µM; TGI (KM12 colon): 70.6 µM; TGI (LOX IMVI melanoma): 32.9 µM; TGI (M14 melanoma): > 100 µM; TGI (MALME-3M melanoma): 63.7 µM; TGI (MCF7 breast): 54.9 µM; TGI (MDA-MB-231 breast): > 100 µM; TGI (MDA-MB-435): > 100 µM; TGI (MOLT-4 leukemia): 36.5 µM; TGI (NCI-H226 lung): > 100 µM; TGI (NCI-H23 lung): > 100 µM; TGI (NCI-H460 lung): > 100 µM; TGI (NCI/ADR-RES ovarian): > 100 µM; TGI (OVCAR-3 ovarian): > 100 µM; TGI (OVCAR-4 ovarian): > 100 µM; TGI (OVCAR-5 ovarian): > 100 µM; TGI (OVCAR-8 ovarian): > 100 µM; TGI (PC-3 prostate): > 100 µM; TGI (RPMI-8226 leukemia): 33.9 µM; TGI (RXF 393 renal): 44 µM; TGI (SF-268 CNS): 68.7 µM; TGI (SF-295 CNS): > 100 µM; TGI (SF-539 CNS): > 100 µM; TGI (SK-MEL-2 melanoma): 46.4 µM; TGI (SK-MEL-28 melanoma): > 100 µM; TGI (SK-MEL-5 melanoma): > 100 µM; TGI (SK-OV-3 ovarian): > 100 µM; TGI (SNB-19 CNS): > 100 µM; TGI (SR leukemia): 71.6 µM; TGI (SW-620 colon): > 100 µM; TGI (T-47D breast): 46.4 µM; TGI (TK-10 renal): > 100 µM; TGI (U251 CNS): > 100 µM; TGI (UACC-257 melanoma): > 100 µM; TGI (UACC-62 melanoma): 84.7 µM; TGI (UO-31 renal): > 100 µM
